“And” between values parts separate entries of the source, which are not always exact repeats. Identical values can stand only once.

This experiment concerns P. falciparum 3D7 growth, pLDH absorbance. In words: P. falciparum 3D7 growth inhibition, dose response, strain 3D7 (AID 2305).

One may read the IC50 as the concentration that inhibits the measured activity by half. High values mean a need for much substance, low ones inhibition by little substance. `CC(C)[C@H](NC(=O)c1ccc(O)c(-c2ccc(Cl)c(Cl)c2)c1)C(=O)NCCN(C)C` returned an IC50 of 1050 nM.
As for `CCN(CC)CCCC(C)Nc1c2cc(OC)ccc2nc2cc(Cl)c([N+](=O)[O-])cc12` (configuration not stated), the figure is 790 nM.
The result for `COc1ccc(C[C@@H](C)NC[C@H](O)c2cccc(Cl)c2)cc1F` reads 870 nM.
For the compound `Cc1ccc(C(=O)Nc2ccnc(N(C)C3CCN(Cc4cccc(O)c4)CC3)c2)cn1`, the IC50 was determined as 1880 nM.
On to `Cc1ccc(-c2cc3nc4c(c(NCCCn5ccnc5)n3n2)CCC4)cc1`, for which the IC50 came to 920 nM.
The compound `Cc1cc(NC(=O)NCCN2CCC(NC(=O)c3ccc(F)cc3)CC2)c2ccccc2n1` returned an IC50 of 330 nM.
As for `Cn1cnc(CCNC(=O)c2ccc(-c3cccc(-c4nc5ccccc5[nH]4)c3)cc2)c1`, the figure is 1100 nM; as for `O=C(Nc1ccc(Cl)cc1)Nc1cccc(-c2cccc(-c3nc4ccccc4[nH]3)c2)c1`, 130 nM.
As to `CCCCCCCN(Cc1ccc(OC(C)(C)C(=O)OCC)cc1)C(=O)Nc1ccc(Cl)cc1OCC`, the IC50 stood at 820 nM.
Consider `CCCCCCCC1CC(CC(=O)Nc2ccnc3ccc(OC)cc23)CN1C(=O)OC(C)(C)C` (configuration not stated), for which the IC50 turned out to be 710 nM.
As for `Cc1cc(Nc2ccnc(-c3ccc(Cl)cc3)n2)ccn1`, the figure is 1040 nM; as for `COc1ccc(CNc2nc(Nc3cccc(C#N)c3)nc(Nc3cccc(C#N)c3)n2)cc1Cl`, 180 nM.
As for `Oc1ccc(CCCNc2nc(NCc3cccc4ccccc34)nc(N3CCNCC3)n2)cc1`, the figure is 810 nM; as for `Cc1cc(CNCC2CCC(CNCCCc3ccccc3)CC2)ccc1O` (configuration not stated), 870 nM.
As for `CCC(ON1C(N)=NC(N)=NC1(C)C)c1ccccc1` (configuration not stated), the figure is 30 nM; as for `COc1ccc(CSC2CCCCC23NC(=S)NC3=S)cc1` (configuration not stated), 850 nM.
For `N#Cc1ccc(N(CCOc2ccc(Cl)c(F)c2)Cc2ccccc2C(F)(F)F)cc1C(F)(F)F`, the IC50 was found to be 680 nM.
As for `CCCc1cc(Cc2cnc(N)nc2N)cc(CCC)c1OCCCCC(=O)OCC`, the figure is 50 nM.
As for `Cc1[nH]c(C)c(-c2ccc(OCc3cc(F)cc(F)c3)nc2)c(=O)c1Br`, the figure is 100 nM; as for `Cc1cc(N(C)C)nc(Nc2ccc(NC(=O)c3ccccc3F)cc2)n1`, 1160 nM; as for `CN(Cc1cccc(O)c1)C1CCN(c2cc(NC(=O)c3ccc(F)cc3)ccn2)CC1`, 960 nM.
Consider `Cc1nc(NCCCn2ccnc2)cc(-c2cncc(-c3ccc(OC(F)(F)F)cc3)c2)n1`, for which the IC50 was found to be 620 nM.
`CC(C)(C)N1CCC(N(Cc2ccc(-c3ccc(C(F)(F)F)cc3)cc2)C(=O)Cn2c(CCc3cccc(F)c3F)cc(=O)c3cccnc32)CC1` displayed an IC50 of 710 nM.
The result for `Nc1cccc(-c2ccc3ccnc(N)c3c2)c1` reads 800 nM; that for `COc1ccc(OCC(=O)Nc2cc(-c3nc4ccccc4[nH]3)ccc2Cl)cc1`, 900 nM.
The result for `O=S(=O)(NCCN1CCCC1)c1ccc(-c2ccc(CNCc3ccsc3)cc2)cc1` reads 850 nM; that for `CN(C)CCN(C)Cc1ccc(-c2ccc(NC(=O)c3cccc(C#N)c3)cc2)cc1`, 1270 nM.
The result for `Cc1nc(NC2=NCN(CCCN3CCOCC3)CN2)nc2c(C)cccc12` reads 1130 nM; that for `Cc1cc(=O)[nH]c(-n2nc(C)cc2NC(=O)C2(c3ccc(Cl)cc3)CCCC2)n1`, 290 nM; that for `Cn1c(O)c(N=NC(=S)N2CCOCC2)c2ccccc21`, 900 nM.
`CCCNCc1ccc(-c2ccc(CN(CCOC)C(=O)CC3CCCC3=O)cc2)nc1` (configuration not stated): the 50% inhibitory concentration (IC50) is 1240 nM.
As for `Clc1ccc(-c2cnc3ccc(NCc4ccncc4)nn23)cc1`, the figure is 890 nM; as for `O=C(NC1CC1)c1cnc(N2CCC(COc3cccc(F)c3)CC2)c(Cl)c1`, 1200 nM; as for `O=C(/C=C/c1ccc(Cl)c(Cl)c1)NCCCCN1CCCN(C(=O)Nc2cc(Cl)cc(Cl)c2)CC1`, 950 nM.
As for `COc1ccc(-c2ccc(NC(=O)c3cccc(F)c3)cc2)cc1CNC(C)C`, the figure is 810 nM; as for `COc1ccc2nccc(NC(=O)C3CCC(NCc4ccc5c(c4)NC(=O)CS5)CC3)c2c1` (configuration not stated), 590 nM.
The result for `O=[N+]([O-])c1ccc(Nc2nc(NN=Cc3cc(Cl)cc(Cl)c3O)nc(Nc3ccccc3)n2)cc1` reads 670 nM; that for `CN1CCN(c2ccnc3ccc(NC(=O)N(C)c4ccc(Cl)c(Cl)c4)cc23)CC1`, 740 nM; that for `Cc1cccc(Cl)c1S(=O)(=O)Nc1cccc(CCN2CCC(N3CCCCC3)CC2)c1`, 1110 nM.
As for `C=CCn1c(=N)n(CC(O)c2ccc(Cl)c(Cl)c2)c2ccccc21` (configuration not stated), the IC50 was 340 nM.
The result for `COc1cccc2cc(C(=O)N[C@@H](CC(C)C)C(=O)N[C@H](/C=N/N3CCOC3=O)CC(C)C)oc12` reads 740 nM; that for `O=C(Nc1ccc(-c2cccc(-c3nc4ccc(C(F)(F)F)cc4[nH]3)c2)cc1)Nc1ccc(F)c(F)c1F`, 710 nM; that for `O=C(Nc1ccc(Oc2ccccc2)cc1)NC1CCC(CN2CCC(c3c[nH]c4ccccc34)CC2)CC1` (configuration not stated), 570 nM.
The result for `COc1ccc(Nc2ncc3c(-c4cccc(NC(=O)Cc5cccc(O)c5)c4)c[nH]c3n2)cc1OC` reads 700 nM; that for `CN1CCN(Cc2cccc(-c3ccc4c(Nc5ccc(F)cc5Cl)ccnc4c3)c2)CC1`, 160 nM; that for `O=C1NC(=O)C(c2cccc(NC(=O)c3ccncc3)c2)=C1c1ccccc1`, 740 nM.
The result for `O=[N+]([O-])c1cccc(NC(=S)N2CCCN(Cc3ccc(Cl)cc3Cl)CC2)c1` reads 930 nM; that for `CCCCCC(C)C(C)c1cc(O)c2c(c1)OC(C)(C)c1cnccc1-2` (configuration not stated), 770 nM; that for `O=[N+]([O-])c1ccc(-n2nc(-c3cccnc3)n(Cc3ccco3)c2=S)c(Cl)c1`, 200 nM.
Compound `Cc1cc(C(=O)Nc2ccc3c(c2)CCN3C2CCN(Cc3ccc4nsnc4c3)C2)no1` (configuration not stated) yielded an IC50 of 640 nM.
The result for `C=CCOC(=O)N1CCC(CNCc2cccc(-c3ccc(-c4nc5ccccc5[nH]4)s3)c2)C1` (configuration not stated) reads 270 nM; that for `COc1ccc2cc(CNCCCCCCNCc3ccc4cc(OC)ccc4c3)ccc2c1`, 620 nM; that for `O=C(O)C1CC(=O)N(c2ccc(Cl)cc2)C1` (configuration not stated), 220 nM.
Consider `CCOC(=O)NCC(=O)Nc1cccc(-c2cccc(-c3nc4c(C)cccc4[nH]3)c2)c1`, for which the IC50 was determined as 740 nM.
As for `CCN(CC)Cc1cccc(-c2cc3c(-c4ccc(C(=O)O)c(C(C)C)c4)ccnc3[nH]2)c1OC`, the figure is 320 nM; as for `CNC(=O)c1ccccc1Nc1cc(Nc2cc(OC)ccn2)ncc1Cl`, 930 nM.
The result for `O=C(Nc1ccc2c(c1)CCC2)c1nc(N2CCN(c3ccncc3)CC2)ccc1Cl` reads 1380 nM.
The result for `CN(CCNCc1ccc(-c2cccc(-c3nc4ccccc4[nH]3)c2)cc1)S(C)(=O)=O` reads 950 nM; that for `Cc1cc(N)c2cc(NC(=O)/C=C/c3ccccc3Cl)ccc2n1`, 400 nM; that for `COCCNCc1cccc(-c2ccc(CN(C(=O)Nc3ccccc3)C3CCN(Cc4ccccc4)CC3)cc2)c1`, 770 nM.
`CCN(CC)CCN(Cc1ccc(-c2ccc(C(F)(F)F)cc2)cc1)C(=O)Cn1c(CCc2cccc(F)c2F)nc(=O)c2ccc(C(F)(F)F)cc21` registered an IC50 of 780 nM.
The result for `CC(=O)Nc1ccc2[nH]cc(C3CCN(CC4CCN(C(=O)/C=C/c5ccc(Cl)c(Cl)c5)CC4)CC3)c2c1` reads 720 nM; that for `COc1ccc(-c2cccc(NC(=O)c3ccc(F)cc3)c2)cc1CNC(C)C`, 1380 nM.
The result for `O=C(Nc1cccc(-c2cccc(-c3nc4ccc(F)cc4[nH]3)c2)c1)c1csnn1` reads 790 nM.
As for `Cc1cc(=O)c(-c2ccc(Oc3cccc(C(F)(F)F)c3)cc2)c(C)[nH]1`, the figure is 630 nM and 210 nM; as for `Fc1ccc(-c2cc3ncnc(N4CCN(CCN5CCCC5)CC4)c3s2)cc1`, 740 nM.
For `Oc1cc(-c2nc(C3(CNCc4ccc(Cl)cc4)CCCCC3)[nH]c2-c2ccncc2)ccc1Cl`, the IC50 came out at 130 nM.
In turn, `c1ccc(C(OCCC2CCN(Cc3cccc4cccnc34)CC2)c2ccccc2)cc1` returned an IC50 of 870 nM.
The result for `O=C(/C=C/c1ccc(Cl)c(Cl)c1)NCCCCCN1CCC(NC(=O)Nc2ccccc2Cl)CC1` reads 710 nM; that for `O=c1cc(NCCCNCc2ccc(C(F)(F)F)cc2F)[nH]c2ccccc12`, 960 nM.
As to `CCN(CC)CCOc1ccc(C(O)(C#CC(O)(c2ccc(OCCN(CC)CC)cc2)c2ccc([N+](=O)[O-])cc2)c2ccc([N+](=O)[O-])cc2)cc1` (configuration not stated), the IC50 is 1730 nM.
As for `N#Cc1ccc(NC(=NCc2ccc(Cl)cc2Cl)Nc2cccc(Cl)c2Cl)c(O)c1`, the figure is 1120 nM; as for `COc1ccc(OC)c(-c2ccc(=O)n(CC(=O)Nc3cccc4ccccc34)n2)c1`, 900 nM; as for `C1=CN(Cc2ccccc2)C=CC1=C1C=Nc2ccccc21`, 760 nM.
The result for `O=C(Nc1cccc(C(F)(F)F)c1)Nc1cc(F)c(F)cc1Cl` reads 1960 nM; that for `FC(F)(F)c1ccc2nc(-c3ccc(-c4ccc(CNCc5cnn(-c6ccccc6)n5)cc4)s3)[nH]c2c1`, 460 nM.
The result for `O=C(/C=C/c1ccc(Cl)c(Cl)c1)NC1CCC(CN2CCC(c3nc4ccc(O)cc4[nH]3)CC2)CC1` (configuration not stated) reads 240 nM.
As for `O=C(Nc1cccc(CN2CCCN(CC3CCCCC3)CC2)c1)c1ccc(Cl)c(Cl)c1`, the IC50 came out at 960 nM.
The result for `CCCN(CC(=O)NCCc1ccccc1)c1ccc(C#N)c2ccccc12` reads 500 nM; that for `CC(C)COc1ccc(Cl)cc1Cc1nc(-c2nc3ccc(CN4CCCC4)cc3[nH]2)co1`, 730 nM.
`Cc1ccc(C(=O)Nc2ccc(F)c(F)c2F)cc1S(=O)(=O)N1CCCCC1` had a concentration for half-maximal inhibition (IC50) of 760 nM.
As for `CNC(=O)COC(=O)c1c2c(nc3ccccc13)C(=Cc1ccc3c(c1)OCO3)CCC2`, the figure is 640 nM; as for `CC(C)CNCc1cccc(-c2ccc(CN(C(=O)Nc3ccccc3)C3CCN(Cc4ccccc4)CC3)cc2)c1`, 480 nM; as for `O=C(O)C[C@H](NC(=O)[C@@H]1CCCN1C(=O)c1cccc(-c2ccc(Cl)c(Cl)c2)c1)C(=O)O`, 860 nM.
The result for `CCn1cc(CN2CCCC(C(=O)Nc3ccc(-c4nc5ccccc5[nH]4)cc3)C2)c(C)n1` (configuration not stated) reads 800 nM; that for `CCn1c(Sc2ccc([N+](=O)[O-])c(C#N)c2)nnc1-c1cccc(Cl)c1`, 870 nM.
The compound `O=C(/C=C/c1ccc(Cl)c(Cl)c1)NCCCCCN1CCC(NC(=O)c2cc(Cl)ccc2F)CC1` had an IC50 of 1160 nM.

Source of the values: PubChem BioAssay AID2305 (GlaxoSmithKline (GSK), 2010).
